From patent US20260209269A1, “MANDELIC ACID SALT OF PALMITOYL LYSYLVALYL-LYSINE” (DSM IP Assets B.V., priority 2022, published 2026) come the findings set out here.

The data set can be described thus: Stability in a cosmetic preparation (clear gel), peptide content after storage. It counts as physicochemical.

Consider Palm-Lys-Val-Lys-OH*2MPAA [MPAA salt], for which the loss of active (after 1 months at 40° C.) is given as 52%.

For Palm-Lys-Val-Lys-OH*2MA [MA salt], the loss of active (after 3 months storage at 40° C.) is −19%.
